Biological target: T1, MESH1 (Homo sapiens, UniProt Q8N4P3)
T1 construct: gene HDDC3; pET28 derivative, expressed in E. coli BL21(lambda DE3); His-tag removed with thrombin
Test: TLC hydrolysis assay (PEI-cellulose)
Format: biochemical
Details: 5 mM substrate, pH 8.0, 37°C, 250 mM NaCl, 14 mM MgCl2, 6.5 mM MnCl2

T1 sequence (Q8N4P3 whole entry): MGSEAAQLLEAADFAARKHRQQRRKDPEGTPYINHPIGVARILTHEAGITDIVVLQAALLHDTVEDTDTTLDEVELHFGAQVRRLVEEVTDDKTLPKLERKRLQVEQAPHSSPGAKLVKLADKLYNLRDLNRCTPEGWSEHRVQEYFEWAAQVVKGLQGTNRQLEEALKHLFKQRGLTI

Structure (SMILES) | TLC hydrolysis assay (PEI-cellulose)
Nc1ncnc2c1ncn2[C@@H]1O[C@H](COP(=O)(O)OP(=O)(O)O)[C@@H](OP(=O)(O)OP(=O)(O)O)[C@H]1O [ppApp] | The human MESH1 hydrolase displays similar activities as shown for Drosophila Mesh1
Nc1ncnc2c1ncn2[C@@H]1O[C@H](COP(=O)(O)OP(=O)(O)OP(=O)(O)O)[C@@H](OP(=O)(O)OP(=O)(O)O)[C@H]1O [pppApp] | The human MESH1 hydrolase displays similar activities as shown for Drosophila Mesh1
